Measurements reported in ChEMBL document CHEMBL1201862, “PubChem BioAssay data set” (2004).
Activity calls are given as the source filed them. Numbered stars: 1 amine (or outer) side, 2 acyl side, 3 side chain; on linkers, the order of the positions; unused ones are H or OH. Square brackets hold non-standard residues; d marks the D form. Peptide text beside a SMILES is read from it. ξ: configuration not given here. X1 = CCCCCCC[C@H](O)C[C@@H](N[*:1])[C@@H](O)C(=O)[*:2]; X3 = COc1ccc(CCCC(N[*:1])C(=O)[*:2])cc1; ξThr(3R) = C[C@@H](O)C(N)C(=O)O; NMeN = CN[C@@H](CC(N)=O)C(=O)O; X2 = C/C=C(/N[*:1])C(=O)[*:2]; Dhb = C/C=C(\N)C(=O)O; Sar = CNCC(=O)O

What was measured:
[1] = target: T1, Long-chain-fatty-acid--AMP ligase FadD28 (Mycobacterium tuberculosis, UniProt P9WQ59); assay: Fluorescence polarization aasay to screen for inhibitors that compete for the binding of FadD28 to a bisubstrate Measured in Biochemical System Using Plate Reader - 2147-01_Inhibitor_Dose_CherryPick_Activity.; assay type: functional, Mycobacterium tuberculosis H37Rv
T1 sequence (P9WQ59 whole entry): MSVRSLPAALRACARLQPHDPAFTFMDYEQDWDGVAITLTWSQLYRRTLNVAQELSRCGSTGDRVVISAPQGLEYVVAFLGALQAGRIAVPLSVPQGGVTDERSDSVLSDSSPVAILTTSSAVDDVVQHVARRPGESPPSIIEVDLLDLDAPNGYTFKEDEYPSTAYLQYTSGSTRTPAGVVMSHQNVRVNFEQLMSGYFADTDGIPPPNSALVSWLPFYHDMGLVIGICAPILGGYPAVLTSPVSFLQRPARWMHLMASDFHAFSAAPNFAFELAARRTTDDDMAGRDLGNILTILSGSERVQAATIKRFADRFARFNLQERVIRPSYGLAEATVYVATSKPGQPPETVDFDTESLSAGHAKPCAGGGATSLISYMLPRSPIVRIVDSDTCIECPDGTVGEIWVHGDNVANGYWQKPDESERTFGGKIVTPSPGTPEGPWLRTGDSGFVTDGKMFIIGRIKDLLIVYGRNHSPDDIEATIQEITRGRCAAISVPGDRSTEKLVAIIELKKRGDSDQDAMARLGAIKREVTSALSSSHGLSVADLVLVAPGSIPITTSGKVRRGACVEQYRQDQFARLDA

[2] = target: 26S proteasome non-ATPase regulatory subunit 14 (Homo sapiens, UniProt O00487); assay: inhibition of proteasome subunit RPN11 – biochemical, fluorescence polarization, uHTS hits, confirmation (AID 602368); assay type: functional
Chain of 26S proteasome non-ATPase regulatory subunit 14 (O00487 whole entry): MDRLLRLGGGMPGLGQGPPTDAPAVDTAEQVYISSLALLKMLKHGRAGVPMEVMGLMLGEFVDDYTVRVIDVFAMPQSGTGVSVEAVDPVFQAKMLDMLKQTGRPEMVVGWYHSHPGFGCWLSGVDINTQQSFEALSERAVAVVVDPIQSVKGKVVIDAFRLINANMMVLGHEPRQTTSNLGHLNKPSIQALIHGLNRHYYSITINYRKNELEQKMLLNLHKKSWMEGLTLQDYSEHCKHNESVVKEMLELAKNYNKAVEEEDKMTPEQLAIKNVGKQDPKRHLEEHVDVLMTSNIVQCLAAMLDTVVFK

[3] = target: 72 kDa type IV collagenase (Homo sapiens, UniProt P08253); assay: Dose Response validation of uHTS RPN11 inhibitor hits using a MMP-2 Fluorescence assay.; assay type: functional
Chain of 72 kDa type IV collagenase (P08253 whole entry): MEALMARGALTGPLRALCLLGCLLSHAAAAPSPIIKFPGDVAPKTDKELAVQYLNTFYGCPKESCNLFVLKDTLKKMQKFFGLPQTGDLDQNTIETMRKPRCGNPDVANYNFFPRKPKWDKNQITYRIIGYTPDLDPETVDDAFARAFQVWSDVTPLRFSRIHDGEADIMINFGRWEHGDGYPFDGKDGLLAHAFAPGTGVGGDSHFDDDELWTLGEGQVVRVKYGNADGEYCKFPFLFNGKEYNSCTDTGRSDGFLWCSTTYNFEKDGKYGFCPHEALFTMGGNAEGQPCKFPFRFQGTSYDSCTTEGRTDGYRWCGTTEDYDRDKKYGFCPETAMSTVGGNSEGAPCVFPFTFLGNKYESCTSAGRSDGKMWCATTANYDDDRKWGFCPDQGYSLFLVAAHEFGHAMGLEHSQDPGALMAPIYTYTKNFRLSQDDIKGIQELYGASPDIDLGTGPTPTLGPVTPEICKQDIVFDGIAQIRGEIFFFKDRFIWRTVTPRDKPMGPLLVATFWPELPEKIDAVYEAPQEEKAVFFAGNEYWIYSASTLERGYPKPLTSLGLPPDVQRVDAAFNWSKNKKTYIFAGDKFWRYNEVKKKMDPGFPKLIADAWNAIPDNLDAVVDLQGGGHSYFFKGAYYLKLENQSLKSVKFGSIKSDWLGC

Prothrombin = Prothrombin (Bos taurus, UniProt P00735); assay: thrombin protease inhibitors – biochemical, fluorescence polarization, uHTS hits, dose response (AID 602369); assay type: functional
[4] = reduction of Shn3 3'UTR-driven luciferase in osteoblasts – cell-based, Clone20 osteoblasts, firefly luciferase, cherry-picked, dose response (AID 624132); assay type: functional;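 note: firefly luciferase luminescence from reporter carrying the Shn3 3'UTR in osteoblasts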
[5] = loss of viability in HepG2 cells – cell-based, CellTiter-Glo, cherry-picked, cytotoxicity control for Shn3 inhibitor project, dose response (AID 624134); assay type: functional
[6] = non-specific 3'UTR reporter inhibition in Clone20-Shn3RL – cell-based, Renilla luciferase, cherry-picked, counter-screen for Shn3 inhibitor project, dose response (AID 624133); assay type: functional
Protein Wnt-3a = Protein Wnt-3a (Mus musculus, UniProt P27467); assay: antagonism of Wnt3a pathway luciferase reporter – Wnt-LIGHT cells, luminescence, selectivity assay for Gli-SUFU antagonist project, dose response (AID 651570); assay type: functional; conditions: read-out: IC50_Mean;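 note: Wnt-LIGHT reporter cells stimulated with conditioned medium from Wnt3a-producing cells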
Chain of Protein Wnt-3a (P27467 whole entry, the tested form may be a part): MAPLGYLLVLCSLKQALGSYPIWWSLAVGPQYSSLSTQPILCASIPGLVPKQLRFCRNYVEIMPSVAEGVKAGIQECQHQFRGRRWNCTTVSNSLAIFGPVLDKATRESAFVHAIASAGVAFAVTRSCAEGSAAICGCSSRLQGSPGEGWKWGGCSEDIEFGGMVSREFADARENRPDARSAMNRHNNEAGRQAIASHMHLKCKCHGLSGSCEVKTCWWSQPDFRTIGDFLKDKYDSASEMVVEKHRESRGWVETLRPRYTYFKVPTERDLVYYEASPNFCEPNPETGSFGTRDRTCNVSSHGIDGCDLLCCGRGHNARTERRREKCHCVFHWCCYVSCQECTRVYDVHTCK

[7] = HIV-1 AD8 envelope cell-cell fusion blockers – cherry-pick, dose response (AID 652062); assay type: functional, cell-based;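 note: luciferase signal from cell-cell fusion driven by HIV-1 clade B AD8 Env; potency is for inhibitors of fusion seen as a drop in luminescence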
[8] = target: T2, Heat shock factor protein 1 (Mus musculus, UniProt P38532); assay: decrease of HSF1-responsive luciferase luminescence – cell-based, NIH3T3, dose retest, confirmation (AID 2382); assay type: functional;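 note: NIH3T3 fibroblasts with HSF1-driven luciferase reporter stressed by proteasome inhibitor MG132; luminescence from HSF1-driven luciferase expression after 8 hours of MG132 stress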
T2 sequence (P38532 whole entry): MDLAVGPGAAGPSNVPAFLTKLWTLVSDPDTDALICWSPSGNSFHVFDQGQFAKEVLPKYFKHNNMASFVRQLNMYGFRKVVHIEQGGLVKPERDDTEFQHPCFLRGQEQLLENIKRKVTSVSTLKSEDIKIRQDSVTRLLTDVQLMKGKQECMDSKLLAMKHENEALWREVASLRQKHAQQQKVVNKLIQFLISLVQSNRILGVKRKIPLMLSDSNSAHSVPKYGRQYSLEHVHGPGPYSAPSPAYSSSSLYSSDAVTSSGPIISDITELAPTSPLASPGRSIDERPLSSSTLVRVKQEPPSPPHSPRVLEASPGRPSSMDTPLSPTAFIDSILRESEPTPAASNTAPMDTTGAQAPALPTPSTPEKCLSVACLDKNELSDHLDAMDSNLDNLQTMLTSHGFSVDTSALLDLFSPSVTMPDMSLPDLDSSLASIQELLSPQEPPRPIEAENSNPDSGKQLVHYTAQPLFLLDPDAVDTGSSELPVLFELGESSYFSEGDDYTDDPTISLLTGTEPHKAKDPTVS

cells [9] = assay type: functional
[10] = viability of uninfected HEp-2 cells – cell-based, HTS, cytotoxicity control for RSV inhibitor project, dose response (AID 2410); assay type: functional; conditions: human respiratory syncytial virus
[11] = luciferase reporter signal suppression in cells – H4 neuroglioma cells, luminescence, dose response (AID 1990); assay type: functional, cell-based
[12] = Luminescence Cell-Based Dose Response HTS to Identify Inhibitors of 5'UTR Stem-Loop Driven Prion Protein mRNA Translation in H4 Neuroglioblastoma Cells. [Related pubchem assays: 1827 (Project Summary), 1813 (Primary HTS)]; assay type: functional
[13] = alpha-synuclein stem-loop luciferase translation blockers – H4 neuroglioma cells, luminescence, confirmation (AID 1988); assay type: functional, cell-based
[14] = Trypanosoma cruzi growth suppression in host cells – NIH3T3 host cells, beta-gal luminescence, confirmation (AID 2044); assay type: functional, cell-based;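 note: intracellular parasites grown in NIH/3T3 mouse fibroblasts as host cells; luminescent beta-galactosidase reporter signal from transgenic T. cruzi replicating inside host cells; inhibitors lower the luminescence signal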
[15] = NIH3T3 cell viability loss – ATP luminescence, mouse fibroblasts, counter-screen, dose response (AID 2010); assay type: functional, cell-based;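 note: cells exposed to compound for about 90 hours before reading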
Cysteine protease ATG4B = target: T3, Cysteine protease ATG4B (Homo sapiens, UniProt Q9Y4P1); assay type: functional;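 note: Fluorescence-based dose-response confirmation assay measuring inhibition of ATG4B activity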
T3 sequence (Q9Y4P1 whole entry): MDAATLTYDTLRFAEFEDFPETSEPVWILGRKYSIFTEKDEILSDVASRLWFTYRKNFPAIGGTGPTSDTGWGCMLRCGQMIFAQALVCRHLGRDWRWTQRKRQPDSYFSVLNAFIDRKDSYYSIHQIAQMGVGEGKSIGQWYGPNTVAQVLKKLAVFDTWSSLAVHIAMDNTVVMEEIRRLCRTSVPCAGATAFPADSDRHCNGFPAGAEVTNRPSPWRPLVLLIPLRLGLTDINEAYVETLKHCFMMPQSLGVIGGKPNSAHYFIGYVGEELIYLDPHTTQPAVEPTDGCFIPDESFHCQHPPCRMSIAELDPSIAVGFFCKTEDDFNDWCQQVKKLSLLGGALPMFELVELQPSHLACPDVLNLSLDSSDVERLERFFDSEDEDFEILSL

Phospholipase A2 = Phospholipase A2 (Homo sapiens, UniProt P04054); assay type: functional;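 note: confirmatory dose-response counterscreen on phospholipase A2, testing hits that came from an ultra-high-throughput screen for ATG4B inhibitors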
Chain of Phospholipase A2 (P04054 whole entry): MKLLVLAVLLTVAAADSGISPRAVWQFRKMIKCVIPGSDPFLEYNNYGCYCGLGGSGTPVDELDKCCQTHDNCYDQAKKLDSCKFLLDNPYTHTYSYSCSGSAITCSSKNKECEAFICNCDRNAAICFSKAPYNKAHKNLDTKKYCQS

Vero = assay: cells; assay type: functional, cell-based; conditions: Chlorocebus sabaeus
cells [16] = assay: cells

## Cc1cccc(NC(=O)CN2C(=O)N/C(=C/c3cc(C)n(-c4ccncc4)c3C)C2=O)c1
[1]
  AC50: 18.7 µM (active)

## Cc1ccc(C(=O)Nc2ccc(C(=O)N/N=C/c3cccnc3)cc2)cc1
[2]
  IC50: 30.5 µM (active)
[3]
  IC50: > 100 µM (inactive)
Prothrombin
  IC50: > 100 µM (inactive)

## CCCCn1c(CN(C)Cc2ccccc2)nc2c1c(=O)n(C)c(=O)n2C
[4]
  AC50: 2.38 µM (active)
[5]
  AC50: 68.8 µM (active)
[6]
  AC50: 2.08 µM (active)
Protein Wnt-3a
  IC50: 4.51 µM (active)
[7]
  AC50: 4.78 µM (active)

## C/C=C1\NC(=O)[C@H](CC(N)=O)N(C)C(=O)C([C@@H](C)O)NC(=O)C(CCCc2ccc(OC)cc2)NC(=O)[C@H](C(C)C)NC(=O)/C(=C\C)NC(=O)[C@H](O)[C@@H](C[C@@H](O)CCCCCCC)NC(=O)[C@H](C)NC(=O)CN(C)C(=O)[C@H](CCC(N)=O)NC1=O (stereo partly drawn) (cyclo(A[X1][X2]V[X3][ξThr(3R)][NMeN][Dhb]Q[Sar]))
[1]
  AC50: > 100 µM (inactive)

## COc1ccc(CN2CCC(C(=O)Nc3ccc(Oc4cccnc4)cc3)CC2)c(C)c1C
[8]
  EC50: > 195 µM (not active)
Cells [9]
  IC50: 10.3 µM (active)
[4]
  AC50: 3.68 µM (active)
[5]
  AC50: 12.9 µM (active)
Protein Wnt-3a
  IC50: 5.34 µM (active)

## Fc1ccc(C2c3[nH]c4ccccc4c3CCN2Cc2cccn2-c2ncccn2)cc1 (stereo unspecified)
[10]
  CC50: 24 µM (active)
[11]
  EC50: 14.6 µM (active)
[12]
  EC50: 13.1 µM (active)
[13]
  EC50: > 120 µM (not active)
[14]
  EC50: 1.7 µM (active)
[15]
  EC50: > 60 µM (not active)
Cysteine protease ATG4B
  IC50: 17.1 µM (active)
Phospholipase A2
  IC50: 15.5 µM (active)
Vero
  IC50: > 25 µM (active)
Cells [16]
  IC50: 8.94 µM (active)

## O=C(CNC(=O)c1ccc([N+](=O)[O-])cc1)N/N=C/c1c[nH]c2ccccc12
[1]
  AC50: 30.2 µM (active)
